According to patent publication US6077872A (priority 1998, dated 2000):

Test system: rickets-mice
Assay: Preventing rickets in younger mice: body weight, dry weight, ash weight and total calcium content of femur
Type: in vivo, mice of Kunming species
Conditions: for dry weight of femur: model 0.099 ± 0.014; for total calcium content: model 24.81 ± 4.36; for ash weight: model 46.62 ± 9.38
Procedure: The mice were bred for 60 days under conditions of avoiding light around-the-clock, at a temperature of 20-25° C. and a relative humility of 40-60% while the normal-control group mice were fed ordinary diet and water and were placed in non-dark room.
The low-calcium diet used in this test was the same as that in Test II but VD in the vitamin mixture was replaced by glucose.
Some weanling mice were placed in dark room and fed VD -deficient low-calcium diet and drunk de-ionized water for 60 days, thus a ricket model of baby mice was prepared. While other weanling mice were placed in non-dark room and fed ordinary diet and drunk tap water for 60 days, these mice were established as normal-control group.

What does the source list for `O=C(O)[C@H](O)[C@@H](O)CO` [calcium L-threonate]?
dry weight of femur (200 mg calcium element): 0.121 ± 0.010 g; total calcium content (200 mg calcium element): 36.23 mg; ash weight (200 mg calcium element): 69.44 ± 6.62 mg; dry weight of femur (300 mg calcium element): 0.131 ± 0.013 g; total calcium content (300 mg calcium element): 38.90 ± 13.78 mg; ash weight (300 mg calcium element): 74.73 ± 12.31 mg; Ca deposited in femur versus calcium gluconate (in words) (P<0.05): much higher than that of calcium gluconate; dry femur weight, ash weight and total calcium content (in words) (high and low dosage): markedly higher than those of the model group and were approximate to those of the normal-control group
